Measured values from patent EP1621201A1, “Hesperidin for prophylaxis and treatment of diseases of the central nervous system, in particular Alzheimer's and Parkinson's diseases, for therapy after stroke as well as for chronic pain” (NeuroCode AG, priority 2004, dated 2006).

Tested on: Fischer-344 Ratten
Experiment: Tele-Stereo-EEG in freely moving rats (field potentials from frontal cortex, hippocampus, striatum, reticular formation; power density spectra)
Assay type: in vivo, Ratte
Conditions: rat
Protocol: Die Veränderungen der EEG-Frequenzen nach intraperitonealer Gabe von Salzlösung (Kontrolle) bzw. einer Dosis von Hesperidin (80 und 160 mg/kg Körpergewicht) wurden bestimmt.
Die Untersuchungen wurden analog der durch W. Dimpfel beschriebenen Methode (Dimpfel W Preclinical data base of pharmaco-specific rat EEG fingerprints (Tele-Stereo-EEG). Eur J Med Res (2003) 8: 199-207) folgendermaßen durchgeführt:
Zwölf männlichen erwachsenen Fischer-344 Ratten (Tag-Nacht konvertiert) wurden im Alter von 6 Monaten 4 bipolar konzentrische Elektroden zusammen mit einem Mikrostecker auf einer gemeinsamen Basisplatte implantiert. Der Stecker diente der Aufnahme eines 4-Kanal-Senders zur telemetrischen Übertragung der aus frontalem Kortex, Hippokampus, Striatum und Formation Reticularis abgeleiteten Feldpotentiale. Die Signale wurden auf einem Computer System (Software "EEG-Analyse", Betriebssystem OS Science, Laborrechner "LabTeam" der Firma MediSyst, Linden, DE) in Echtzeit einer Fast-Fourier-Transformation unterworfen und die Leistungsdichtespektren jeweils über 15 bis 60 Minuten gemittelt. Die Unterteilung der Spektren in 6 verschiedene Frequenzbereiche erlaubte die Erfassung pharmako-spezifischer Veränderungen in Bezug auf die jeweils vor Applikation gemessenen Vorwerte innerhalb dieser Frequenzbänder.
Zum Applikationsprotokoll der Substanzen: die Substanzen wurden i.p. 45 Minuten nach Beginn der Messungen (Vorwert) injiziert. Fünf Minuten später wurden die Messungen wieder gestartet, mindestens über die nächsten 5 Stunden kontinuierlich analysiert und in 60-minütigen Perioden zusammengefaßt. Die Testsubstanz wurde in einer Dosierung von 80 und 160 mg/kg appliziert. Die experimentelle Serie wurde mit der Injektion von Salzlösung (Kontrolle), die zu keiner auffälligen Änderung führte, begonnen.
Der statistische Vergleich der Versuche zu den Ergebnissen, die nach Gabe von Salzlösung gemessen wurde, erfolgte mit Hilfe einer multivariaten Analyse nach Ahrens und Läuter (siehe H. Ahrens, J. Läuter "Mehrdimensionale Varianzanalyse" (1974), Akademie Verlag, Berlin) auf der Basis der Veränderungen innerhalb der einzelnen Frequenzbänder in allen Hirnregionen als Variablen.

COc1ccc([C@@H]2CC(=O)c3c(O)cc(O[C@@H]4O[C@H](CO[C@@H]5O[C@@H](C)[C@H](O)[C@@H](O)[C@H]5O)[C@@H](O)[C@H](O)[C@H]4O)cc3O2)cc1O [Hesperidin, Hesperetin 7-rhamnoglucosid]
zeitabhängige Veränderungen der EEG-Frequenzen (delta, theta und alpha2 Frequenzen) (80 or 160 mg/kg Hesperidin i.p., Fig. 3a and 3b): nehmen statistisch signifikant und dauerhaft ab | correlation of the EEG pattern with patterns of drugs for neurodegenerative diseases, pain and stroke (discriminant analysis) (i.p. single dose, compared with Tacrin, Piracetam, Memantine, Metamizol, Amphetamin, no correlation with patterns of drugs for other indications): korrelieren in signifikanter Weise | delta, theta und alpha2 Frequenzen (i.p., 160 mg/kg, first hour after administration): Abfall | duration for which the pattern (decrease of delta, theta, alpha2) was observed (i.p., 160 mg/kg, whole test period): 5 Stunden | Veränderungen der Leistungsdichte in den einzelen Hirnregionen (i.p., 80 and 160 mg/kg, versus pre-drug baseline): dosis-abhängig zu deutlichen Veränderungen | Muster der EEG-Frequenzänderungen (i.p., after 80 and 160 mg/kg, versus saline): stabiles, statistisch signifikantes Muster
